# Laboratory results: US20150197492A1, “NOVEL INDENO[1,2-c]QUINOLIN-11-ONE DERIVATIVES, PREPARATION METHOD AND APPLICATION THEREOF” (National Defense Medical Center, priority 2014, published 2015)
# Legend:
# [1] = test system: human PC-3 cells; test: Sulforhodamine B (SRB) assay, cytotoxicity against PC-3 cells; type: cell-based; conditions: SRB assay, PC-3 cells
# Experimental: Add 5% Fetal Bovine Serum (FBS) to 96-well plate and fix the cells with 10% TCA after 24 hours of incubation and add the compound (T0). Add DMSO and culture for another 48 hours and the cells are fixed in 0.4% (W/V), 10% TCA and SRB, and […]. Excess SRB is washed off by 1% acetic acid and cells stained with SRB are dissolved in 10 mmol/L Trizma base. The absorbance is measured at 515 nm. The treatment time is 0 (T0), control growth (C) and the increase of the compound (Tx) in the cells are shown below and are used to calculate the increase of the concentration of the compound in percentage. Growth inhibition (GI %) is calculated using the following formula 100−[(TX−T0)/(C−T0)]×100. The 50% growth inhibition concentration (IC50) is used to confirm the concentration of compound and thus results in 50% reduction of the treated cells which control the amount of total protein.
# This part of experimental results are SRB assays measuring cytotoxicity of the 26 synthesized compounds against human PC-3 cells and are summarized in Table 1 and 2.
# [2] = Solubility in DMSO; type: physicochemical; conditions: order SJ-2<SJ-24<SJ-3<SJ-11
# Source text: The solubility of the four compounds in DMSO is poor, SJ-2<SJ-24<SJ-3<SJ-11, and therefore it is estimated and this is the reason why the three compounds which have previously proven to be effective against PC-3 cell line by SRB assays are ineffective in this experiment.
SMILES,melting point [°C],solubility in DMSO [2],Toxicity (%) [1] [%],GI % (10 μM) [1] [%]
"CCN1CCN(c2nc3ccccc3c3c2-c2ccc(Cl)cc2C3=O)CC1 [SJ-13, 9-Chloro-6-(4-ethylpiperazin-1-yl)-11H-indeno[1,2-c]quinolin-11-one]",182 to 184,–,29.7,100
"O=C1c2cc(Cl)ccc2-c2c(N3CCC(N4CCCCC4)CC3)nc3ccccc3c21 [SJ-15, 9-Chloro-6-(4-(piperidin-1-yl)piperidin-1-yl)-11H-indeno[1,2-c]quinolin-11-one]",174 to 175,–,0,98.83
"O=C1c2cc(Cl)ccc2-c2c(N3CCN(Cc4ccccc4)CC3)nc3ccccc3c21 [SJ-17, 6-(4-Benzylpiperazin-1-yl)-9-chloro-11H-indeno[1,2-c]quinolin-11-one]",178 to 180,–,0,73.53
"O=C1c2cc(Cl)ccc2-c2c(N3CCN(c4ccccc4F)CC3)nc3ccccc3c21 [SJ-18, 9-Chloro-6-(4-(2-fluorophenyl)piperazin-1-yl)-11H-indeno[1,2-c]quinolin-11-one]",182 to 183,–,0,85.48
"COc1ccccc1N1CCN(c2nc3ccccc3c3c2-c2ccc(Cl)cc2C3=O)CC1 [SJ-19, 9-Chloro-6-(4-(2-methoxyphenyl)piperazin-1-yl)-11H-indeno[1,2-c]quinolin-11-one]",129 to 131,–,8.5,100
O=C1c2cc(Cl)ccc2-c2c(N3CCC4(CC3)OCCO4)nc3ccccc3c21 [SJ-22],218 to 219,–,42.6,100

# Now from value to compound, other results behind:
melting point [°C],solubility in DMSO [2],SMILES,Toxicity (%) [1] [%],GI % (10 μM) [1] [%]
149 to 150,–,"O=C1c2cc(Cl)ccc2-c2c(N3CCCC3)nc3ccccc3c21 [SJ-4, 9-Chloro-6-(pyrrolidin-1-yl)-11H-indeno[1,2-c]quinolin-11-one]",47.2,100
191 to 192,–,"O=C1c2cc(Cl)ccc2-c2c(N3CCCCC3)nc3ccccc3c21 [SJ-5, 9-Chloro-6-(piperidin-1-yl)-11H-indeno[1,2-c]quinolin-11-one]",22.2,100
146 to 147,–,"O=C1c2cc(Cl)ccc2-c2c(N3CCCCCC3)nc3ccccc3c21 [SJ-7, 6-(Azepan-1-yl)-9-chloro-11H-indeno[1,2-c]quinolin-11-one]",41.7,100
208 to 209,–,"CN1CCC(N2CCN(c3nc4ccccc4c4c3-c3ccc(Cl)cc3C4=O)CC2)CC1 [SJ-21, 9-Chloro-6-(4-(1-methylpiperidin-4-yl)piperazin-1-yl)-11H-inden o[1,2-c]quinolin-11-one]",66,100
149 to 151,poor,"O=C1c2cc(Cl)ccc2-c2c(N3CCC(CCCC4CCNCC4)CC3)nc3ccccc3c21 [SJ-24, 9-Chloro-6-(4-(3-(piperidin-4-yl)propyl)piperidin-1-yl)-11H-indeno[1,2-c]quinolin-11-one]",63.8,100
